# Legend:
# [1] = tested on: Gaeumannomyces graminis; assay: Gaeumannomyces graminis / liquid culture (take-all of cereals); type: cell-based; details: 20 ppm, growth inhibition photometrically 4-5 days after application, vs untreated control
# Description: Gaeumannomyces Graminis/Liquid Culture (Take-All of Cereals)
# Mycelial fragments of the fungus from cryogenic storage were directly mixed into nutrient broth (PDB potato dextrose broth). After placing a (DMSO) solution of test compound into a microtiter plate (96-well format), the nutrient broth containing the fungal spores iss added. The test plates are incubated at 24° C. and the inhibition of growth is determined photometrically 4-5 days after application.
melting point [°C],Structure (SMILES),control of Gaeumannomyces graminis [1]
125 to 127,"C#CCC(C)(CC(C)C)C(=O)Nc1cnc2c(F)cccc2c1 (stereo not shown) [Compound E-3, N-(8-fluoro-3-quinolyl)-2-isobutyl-2-methyl-pent-4-ynamide]",–
182 to 184,"O=C(Nc1cnc2c(F)cccc2c1)C(CC#CC1CC1)CC(F)(F)F (stereo not shown) [Compound E-2, 5-cyclopropyl-N-(8-fluoro-3-quinolyl)-2-(2,2,2-trifluoroethyl)pent-4-ynamide]",–

Structure (SMILES),melting point [°C],control of Gaeumannomyces graminis [1]
"CC#CCC(C)(CC(C)C)C(=O)Nc1cnc2c(F)cccc2c1 (stereo not shown) [Compound E-5, N-(8-fluoro-3-quinolyl)-2-isobutyl-2-methyl-hex-4-ynamide]",139 to 140,at least 80%
